In US5051406A, “Pharmaceutical composition using albumin as a carrier and process for producing the same” (Nippon Hypox Laboratories Incorporated, priority 1987, dated 1991):

Key:
Type in all cases: in vivo, male rats of Wistar strain
[1] = Absorption of nalidixic acid-albumin composition by gastrointestinal tract (oral, rat serum level)
Description: It was made clear from the following test that the nalidixic acid-albumin composition (nalidixic acid content: 8.9%) obtained according to the present invention improves the absorption of nalidixic acid administered after meals.
Male rats of Wistar strain each weighing about 290 g obtained from Sankyo Labo. were used under a satiety condition.
The administration amount was 50 mg/kg in terms of nalidixic acid. A composition was administered in a form of its suspension in 1 ml of water, using an oral sonde. About 0.2 ml of blood was drawn from the eyeground of rat using a capillary (Drummond, 0.1 ml) and then centrifuged to obtain a serum.
The serum was mixed with an equal volume of methanol to deproteinize the serum. The determination for the deproteinized serum was conducted according to high performance liquid chromatography.
Column: ODS-80TM manufactured by TOYO SODA, 4.6 mm×15 cm
Mobile phase: Acetonitrile: 50 mM citric acid solution: 1 M ammonium acetate =35 : 64 : 1
Detection wavelength: 258 nm
Column temperature: Room temperature
The calibration curve was obtained by adding known nalidixic acid to a blank serum and subjecting the mixture to the same procedure as for the sample.

[2] = test system: carragheenin induced plantar edema; assay: Anti-inflammatory action, carragheenin induced plantar edema method; conditions: rat, oral, 5 mg/kg in terms of Indometacin
Description: The anti-inflammatory action of the Indometacin-albumin composition can also be proven by the following test by carragheenin induced plantar edema method.
A wide-mouthed glass container filled with water was placed on an electronic even balance. Into the water was immersed the sole of the right hind leg of rat up to the borders of the hair, and the resulting weight increase was measured to obtain a volume of the sole.
Three groups of male rats of Wistar strain each weighing 150-180 g (one group consisted of 6 such rats) were fasted for 18 hours and then measured for their sole volumes. These volumes were each taken as a sole volume before administration.
As test samples, there were used two suspensions, i.e. a suspension obtained by suspending the Indometacin-egg albumin composition (Indometacin 3 g / egg albumin 30 g) obtained in Example 24 (described later) in 1% CMCNa in an amount of about 5 mg/kg in terms of Indometacin and a suspension obtained by suspending an Indometacin powder in 1% CMCNa in an amount of 5 mg/kg in terms of Indometacin. These suspensions were orally administered to two sample groups at a proportion of 0.5 ml/100 g (rat). At 30 minutes after the oral administration, 0.1 ml of a physiological saline solution containing 1% of λ-carragheenin was subcutaneously administered to each rat at the sole of right hind leg and, immediately, 5 ml of water was administered orally. In 1, 3 and 5 hours after the administration of the 1% λ-carragheenin solution, the sole volume of each rat was measured. Then, the swelling percent of each individual rat, the average swelling percent of each group and the corresponding inhibition ratio were calculated according to the following formulae.
As a control sample, there was used 1% CMCNa, and it was orally administered to one control group at a proportion of 0.5 ml/100 g (rat). The results were compared with those of the sample-administered groups.
Swelling percent (%)=((B-A).div.A)×100
Inhibition ratio (%)=((C-D).div.C)×100
A: Sole volume before administration
B: Sole volume after administration
C: Average swelling percent of control group
D: Average swelling percent of sample group

[3] = test system: stomach mucous membrane (ulcer); assay: Formation of stomach ulcer by Indometacin-albumin composition; conditions: rat, fasted, oral, 20 mg/kg in terms of Indometacin, 7 hours
Description: It is known that while non-steroidal anti-inflammatory agents show a strong anti-inflammatory action to inflammation-affected parts, they cause hemorrhage and ulcer to the digestive system.
The test was conducted according to the method by Okabe et al. (J. Jap. Pharmacol. Vol. 29, 670 (1979)). That is, two groups of male rats of Wistar strain each weighing 180-200 g (one group consisted of 8 such rats) were fasted for about 18 hours. As test samples, there were used suspensions obtained by suspending the Indometacin-albumin composition (Indometacin 3 g albumin 30 g) obtained in Example 23 or 24 (described later) in a 1% carboxymethyl cellulose sodium solution (hereinafter referred to as 1% CMCNa) in an amount of 20 mg/kg in terms of Indometacin. These suspensions were orally administered to the rats at a proportion of 0.5 ml/100 g (rat). As a control sample, a suspension obtained by suspending an Indometacin powder in 1% CMCNa in an amount of 20 mg/kg was administered similarly. After 7 hours from the administration, all the rats were sacrificed under etherization. 8 ml of a 1% aqueous buffered formalin solution was injected into the stomach of each rat. […] Thereafter, the stomach was incised along the greater curvature and the lesioned portions (ulcer portions) generated in the mucous membrane were measured for their major axes (mm) under a stereoscopic microscope. […]

| SMILES | AUC at 8 h ([1]; 50 mg/kg in terms of nalidixic acid, 0-8 hours, read-out: area below the blood concentration-time curve (AUC) between 0 and 8 hours) [µg·h/mL] | Tmax ([1]; 50 mg/kg in terms of nalidixic acid, satiety condition, read-out: time at which blood concentration of nalidixic acid reached the maximum) [h] | Cmax ([1]; same amount (50 mg/kg), satiety condition, read-out: maximum blood concentration of nalidixic acid (powder, unit printed as μg)) [µg/mL] | Swelling percent, 1 hr ([2]; 1 hr after λ-carragheenin) [%] | Swelling percent, 3 hr ([2]; 3 hr after λ-carragheenin) [%] | Swelling percent, 5 hr ([2]; 5 hr after λ-carragheenin) [%] | Inhibition ratio, 1 hr ([2]; vs 1% CMCNa control, 1 hr after λ-carragheenin) [%] | Inhibition ratio, 3 hr ([2]; vs 1% CMCNa control, 3 hr after λ-carragheenin) [%] | Inhibition ratio, 5 hr ([2]; vs 1% CMCNa control, 5 hr after λ-carragheenin) [%] | Incidence [3] [%] | Ulcer index (Mean ± S.E.) ([3]; total of major axes (mm) of ulcers) |
| --- | --- | --- | --- | --- | --- | --- | --- | --- | --- | --- | --- |
| CCn1cc(C(=O)O)c(=O)c2ccc(C)nc21 [nalidixic acid powder, nalidixic acid] | 34.6 | 3 | ~7 | – | – | – | – | – | – | – | – |
| COc1ccc2c(c1)c(CC(=O)O)c(C)n2C(=O)c1ccc(Cl)cc1 [Indometacin powder, Indometacin] | – | – | – | 10.3 | 8.4 | 8.5 | 39.4 | 52.5 | 60.5 | 100.0 | 341.7 ± 49.9 |
